Here are results for 21 compounds from ChEMBL document CHEMBL1147472, “Design, synthesis, and evaluation of a new class of noncyclic 1,3-dicarbonyl compounds as PPARalpha selective activators” (Bioorg Med Chem Lett, 2004).

Experiment [1] concerns the target T1, Peroxisome proliferator-activated receptor gamma (Homo sapiens, UniProt P37231).
T1 sequence (P37231 whole entry): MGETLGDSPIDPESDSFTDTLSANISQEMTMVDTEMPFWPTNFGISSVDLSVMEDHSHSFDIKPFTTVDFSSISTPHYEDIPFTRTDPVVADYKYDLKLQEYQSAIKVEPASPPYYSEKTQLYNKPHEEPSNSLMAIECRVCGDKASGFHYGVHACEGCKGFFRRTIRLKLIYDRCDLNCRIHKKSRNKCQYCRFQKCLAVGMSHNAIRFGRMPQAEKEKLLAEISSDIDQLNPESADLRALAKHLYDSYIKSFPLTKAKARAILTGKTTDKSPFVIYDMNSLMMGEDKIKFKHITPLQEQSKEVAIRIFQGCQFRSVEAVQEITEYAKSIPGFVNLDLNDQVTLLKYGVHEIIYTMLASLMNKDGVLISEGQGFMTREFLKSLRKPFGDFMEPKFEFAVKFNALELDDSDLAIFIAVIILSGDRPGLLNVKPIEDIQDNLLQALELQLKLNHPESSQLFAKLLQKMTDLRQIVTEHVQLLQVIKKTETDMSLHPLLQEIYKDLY

Experiment [2] has as its target T2, Peroxisome proliferator-activated receptor delta (Homo sapiens, UniProt Q03181).
T2 sequence (Q03181 whole entry): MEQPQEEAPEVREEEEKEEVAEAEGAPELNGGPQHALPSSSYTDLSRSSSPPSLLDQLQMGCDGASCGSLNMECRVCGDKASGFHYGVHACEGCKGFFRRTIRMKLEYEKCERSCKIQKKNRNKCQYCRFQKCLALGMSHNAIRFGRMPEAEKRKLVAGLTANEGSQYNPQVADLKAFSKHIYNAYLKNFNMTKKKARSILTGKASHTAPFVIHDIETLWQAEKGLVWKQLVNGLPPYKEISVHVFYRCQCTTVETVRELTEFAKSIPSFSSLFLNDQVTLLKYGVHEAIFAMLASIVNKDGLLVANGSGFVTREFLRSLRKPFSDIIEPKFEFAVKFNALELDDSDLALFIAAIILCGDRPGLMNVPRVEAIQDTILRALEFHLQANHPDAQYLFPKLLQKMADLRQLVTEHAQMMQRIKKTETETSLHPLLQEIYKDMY
Kind of experiment: In vitro transcription activation on human peroxisome proliferator activated receptor-delta (PPAR delta); Inactive.

Experiment [3] deals with T3, Peroxisome proliferator-activated receptor alpha (Homo sapiens, UniProt Q07869).
T3 sequence (Q07869 whole entry): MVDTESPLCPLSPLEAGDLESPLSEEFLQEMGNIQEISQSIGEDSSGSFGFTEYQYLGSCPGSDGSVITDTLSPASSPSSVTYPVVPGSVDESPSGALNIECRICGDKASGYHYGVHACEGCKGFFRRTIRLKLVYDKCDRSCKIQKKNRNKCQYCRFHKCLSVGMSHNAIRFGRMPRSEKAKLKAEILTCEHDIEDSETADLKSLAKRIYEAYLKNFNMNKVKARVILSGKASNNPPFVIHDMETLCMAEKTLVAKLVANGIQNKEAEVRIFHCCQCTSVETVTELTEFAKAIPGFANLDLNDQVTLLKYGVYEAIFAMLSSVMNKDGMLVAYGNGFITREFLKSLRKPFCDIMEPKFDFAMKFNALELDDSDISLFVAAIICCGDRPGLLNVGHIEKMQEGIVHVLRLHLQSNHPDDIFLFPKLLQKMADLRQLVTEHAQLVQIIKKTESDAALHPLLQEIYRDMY
Description: In vitro transcription activation on human peroxisome proliferator activated receptor-alpha (PPAR alpha); Inactive.

Experiment [4] deals with T3, Peroxisome proliferator-activated receptor alpha. Description: (§1) In vitro transcription activation on human peroxisome proliferator activated receptor-alpha (PPAR alpha).
The target of experiment [5] is T4, Peroxisome proliferator-activated receptor alpha (Homo sapiens) (UniProt Q07869).
T4 sequence (whole entry): T3 sequence (Q07869 whole entry)
The description is as §1.

For experiment [6], the system named is Mus musculus. Description: In vivo effect on blood glucose level in mice at a dose of 20 mg/kg by oral administration after two week. The experiment is classed as functional.
Experiment [7] addresses T1, Peroxisome proliferator-activated receptor gamma. Kind of experiment: In vitro transcription activation on human peroxisome proliferator activated receptor-gamma (PPAR gamma).
Experiment [8] deals with T2, Peroxisome proliferator-activated receptor delta. Kind of experiment: In vitro transcription activation on human peroxisome proliferator activated receptor-delta (PPAR delta).
Experiment [9] has the same target. Kind of experiment: In vitro transcriptional activation by human peroxisome proliferator activated receptor-delta (PPAR delta; Inactive.
For experiment [10], the system named is Mus musculus. Kind of experiment: In vivo effect on blood glucose level in mice at the dose of 5 mg/kg by oral administration after two week. The experiment is classed as functional.
In experiment [11] the test system is Mus musculus. Description: In vivo effect on blood glucose level in mice at a dose of 30 mg/kg by oral administration after two week. It is filed as functional.
The subject of experiment [12] is Mus musculus. Description: In vivo effect on blood glucose level in mice at a dose of 10 mg/kg by oral administration after two week. The experiment is classed as functional.

By EC50 is commonly meant the concentration needed to bring the measured effect to its halfway point. A higher EC50 goes with a need for much substance. For `CC1(C)CCC(C)(C)c2cc(OCCOc3ccc(CC(C(N)=O)C(=O)O)cc3)ccc21` (configuration not stated), the concentration for a half-maximal effect (EC50) result in [1], in [2] and in [3] was “Not Active” in each case.
`NC(=O)C(Cc1ccc(OCCOc2ccc3ccccc3c2)cc1)C(=O)O` (configuration not stated): the EC50 in experiment [4] turned out to be 250 nM; in experiment [7], 3020 nM; in experiment [8], 2630 nM. For the same compound, the Max response in experiment [5] turned out to be 213%. This compound also displayed a Reduction in experiment [6] of 42.22%.
Consider `O=C(O)C(Cc1ccc(OCCOc2ccc3ccccc3c2)cc1)C(=O)O`, for which the concentration giving a half-maximal response (EC50) result in experiment [1], in [9] and in [3] was “Not Active” each time.
`COC(=O)C(Cc1ccc(OCCOc2ccc3c(c2)C(C)(C)CCC3(C)C)cc1)C(=O)O` (configuration not stated): the concentration giving a half-maximal response (EC50) entry was “Not Active” in experiment [2], 90 nM in experiment [7] and “Not Active” in [3].
Take `COC(=O)C(Cc1ccc(OCCOc2ccc3c(c2)NCCC3)cc1)C(=O)OC`: the figures for the EC50 in [4], in [7] and in experiment [8] were 170 nM, 3160 nM and 3160 nM, respectively. The same compound had a Max response in experiment [5] of 215%.
Regarding `CN(CCOc1ccc(CC2SC(=O)NC2=O)cc1)c1ccccn1` (configuration not stated) [ROSIGLITAZONE], the Reduction in experiment [10] turned out to be 62.96%.
On to `COC(=O)C(Cc1ccc(OCCOc2ccc3c(c2)CCCC3)cc1)C(=O)O` (configuration not stated), for which the figures for the EC50 in experiment [7], in experiment [8] and in [3] were 690 nM, 2450 nM and “Not Active”, respectively.
For the compound `Cc1oc(-c2ccccc2)nc1CCOc1ccc(CC2C(=O)NOC2=O)cc1` (configuration not stated) [REGLITAZAR], the EC50 result in experiment [2] is “Not Active”.
Take `O=C(O)C(Cc1ccc(OCCOc2ccc3c(c2)NCCC3)cc1)C(=O)O`: the EC50 entry in experiment [1], in experiment [2] and in experiment [3] was “Not Active” in each case.
For `COC(=O)C(Cc1ccc(OCCOc2ccc3c(c2)C(C)(C)CCC3(C)C)cc1)C(=O)OC`, the EC50 entry in [2] was “Not Active”; in experiment [7], 150 nM; in [3], “Not Active”.
For the compound `NC(=O)C(Cc1ccc(OCCOc2ccc3c(c2)NCCC3)cc1)C(=O)O` (configuration not stated), the concentration for a half-maximal effect (EC50) was 140 nM in experiment [4], 2880 nM in [7] and 3620 nM in experiment [8]. Also, the Max response in [5] turned out to be 210%.
The matching figures for `COC(=O)C(Cc1ccc(OCCOc2ccc3ccccc3c2)cc1)C(=O)O` (configuration not stated): 44 nM, 1120 nM, 1050 nM and 264%.
On to `CCCCCCCCCCCCCCC(Br)C(=O)O` (configuration not stated), for which a half-maximal effect in experiment [8] (EC50) was put at 3720 nM.
Turning to `COC(=O)C(Cc1ccc(OCCOc2ccc3c(c2)C(C)(C)CCC3(C)C)cc1)C(N)=O` (configuration not stated), the half-maximal effective concentration (EC50) result was “Not Active” in [2], 830 nM in experiment [7] and “Not Active” in experiment [3].
On to `COC(=O)C(Cc1ccc(OCCOc2ccc3c(c2)CCCC3)cc1)C(=O)OC`, for which, in experiment [11], the Reduction was 38.15%. Further, the EC50 in experiment [4] was 30 nM; in experiment [7] it was 1500 nM; in [8], 3310 nM. Besides, the Max response in experiment [5] was determined as 210%.
As for `O=C(O)C(Cc1ccc(OCCOc2ccc3c(c2)CCCC3)cc1)C(=O)O`, the half-maximal effective concentration (EC50) in experiment [7] is 2110 nM; in experiment [8] it was 4680 nM; in experiment [3], “Not Active”.
Take `CC1(C)CCC(C)(C)c2cc(OCCOc3ccc(CC(C(=O)O)C(=O)O)cc3)ccc21`: the EC50 result in experiment [2] is “Not Active”; in [7], 2050 nM; in experiment [3], “Not Active”.
Take `Cc1cccc(Nc2cc(Cl)nc(SCC(=O)O)n2)c1C` [PIRINIXIC ACID]: in [1], the 50% effective concentration (EC50) entry is recorded as “Not Active”. In [5], this compound gave a Max response of 100%.
`COC(=O)C(Cc1ccc(OCCOc2ccc3ccccc3c2)cc1)C(=O)OC`: the Reduction in experiment [11] was determined as 46.76%; in experiment [12], 35.08%. Besides, the EC50 in experiment [4] worked out at 70 nM; in experiment [7] it was 530 nM; in experiment [8], 1270 nM. The Max response in experiment [5] was 264%.
As to `COC(=O)C(Cc1ccc(OCCOc2ccc3c(c2)NCCC3)cc1)C(=O)O` (configuration not stated), the half-maximal effective concentration (EC50) stood at 90 nM in [4], 3800 nM in experiment [7] and 3090 nM in experiment [8]. In addition, the Max response in [5] turned out to be 207%.
On to `COC(=O)C(Cc1ccc(OCCOc2ccc3c(c2)CCCC3)cc1)C(N)=O` (configuration not stated), for which the EC50 result in [2] is “Not Active”; in experiment [7], 3430 nM; in experiment [3], “Not Active”.
